# Test results taken from patent US8821875B2, “Pharmaceutical composition comprising antibodies against catalase and superoxide dismutase for tumor therapy” (Universitaetsklinikum Freiburg, priority 2011, dated 2014).
# B1: exogenous catalase: 1000 U/ml catalase from ox liver, added exogenously (protein, UniProt P00432 2-527, looked up)
# Catalase: ADNRDPASDQMKHWKEQRAAQKPDVLTTGGGNPVGDKLNSLTVGPRGPLLVQDVVFTDEMAHFDRERIPERVVHAKGAGAFGYFEVTHDITRYSKAKVFEHIGKRTPIAVRFSTVAGESGSADTVRDPRGFAVKFYTEDGNWDLVGNNTPIFFIRDALLFPSFIHSQKRNPQTHLKDPDMVWDFWSLRPESLHQVSFLFSDRGIPDGHRHMNGYGSHTFKLVNANGEAVYCKFHYKTDQGIKNLSVEDAARLAHEDPDYGLRDLFNAIATGNYPSWTLYIQVMTFSEAEIFPFNPFDLTKVWPHGDYPLIPVGKLVLNRNPVNYFAEVEQLAFDPSNMPPGIEPSPDKMLQGRLFAYPDTHRHRLGPNYLQIPVNCPYRARVANYQRDGPMCMMDNQGGAPNYYPNSFSAPEHQPSALEHRTHFSGDVQRFNSANDDNVTQVRTFYLKVLNEEQRKRLCENIAGHLKDAQLFIQKKAVKNFSDVHPEYGSRIQALLDKYNEEKPKNAVHTYVQHGSHLSAREKANL
# How the values were obtained:
# [1] = test system: MKN-45 cells; test: Inhibitor analysis of antibody-induced apoptosis in MKN-45 cells (ROS signaling); type: cell-based, human; settings: for effect of inhibitor on apoptosis induced by monoclonal antibody against catalase: MKN-45, 2 hours, FIG. 8; for effect of inhibitor on anti-SOD-induced apoptosis: MKN-45, 6 hours, inhibitor concentrations of b79
# Protocol: To 12 500 MKN-45 cells in […] RPMI 1640 medium, 10% FBS the given concentrations of the monoclonal antibodies against catalase as well as the mentioned inhibitors were added and the incubation was continued for 2 hours at 37° C., 5% CO2, before in duplicates the percentages of apoptotic cells were determined.
# To 12 500 MKN-45 cells in […] RPMI 1640 medium, 10% FBS the given concentrations of the monoclonal antibodies against catalase and the given concentrations of the salen-manganese complex EUK-134 (chloro[[2,2′-[1,2-ethanediylbis[(nitrilo-κN)methylidyne]]bis[6-methoxyphenolato-κO]]]-manganese) (a catalase mimetic) were added and the incubation was continued for 2.5 hours at 37° C., 5% CO2. Subsequently, the percentage of apoptotic cells (duplicates) was determined according to the conventional apoptosis criteria membrane blebbing, nuclear condensation and/or nuclear fragmentation.
# To 12 500 MKN-45 cells in […] RPMI 1640 medium, 10% FBS the given concentrations of monoclonal antibodies against SOD and the given inhibitors were added and the incubation was continued for 6 hours at 37° C., 5% CO2. Subsequently, the percentage of apoptotic cells (duplicates) was determined according to the conventional apoptosis criteria membrane blebbing, nuclear condensation, and/or nuclear fragmentation.
# Inhibitors: […] FeTPPS (peroxynitrite decomposition catalyst); 75 U/ml MnSOD; 50 mM taurine (HOCl scavenger); 2.4 mM L-NAME (NOS inhibitor).
# [2] = test system: human Ewing's sarcoma line SKN-MC; test: Induction of apoptosis in Ewing's sarcoma line SKN-MC and inhibitor analysis; type: cell-based; settings: 3 hours, inhibitor concentrations; for effect of inhibitor on anti-catalase-induced apoptosis: FIG. 13A; for effect of inhibitor on anti-SOD-induced apoptosis: FIG. 13B
# Protocol: To 12 500 cells of the human neuroblastoma line SHEP and the human Ewing's sarcoma line SKN-MC in […] EMEM plus 5% FBS the given concentrations of anti-catalase and anti-SOD, respectively, were added. The percentages of apoptotic cells were determined after 5 hours (SHEP) and 5.5 hours (SKNMC), respectively.
# To 10 000 cells of the human Ewing's sarcoma line SKN-MC in […] EMEM plus 5% FBS the given inhibitors and the concentrations of anti-catalase and anti-SOD, respectively, plotted in the abscissa were added. The percentages of apoptotic cells were determined after 3 hours.
# Inhibitors: 50 mM taurine (HOCl scavenger); […] (peroxynitrite decomposition catalyst); 1000 U/ml catalase from ox liver; 40 mM MnTE2PyP(SOD mimetic); 90 U/ml MnSOD; 20 mM 3-Br-7-nitroindazole (nNOS specific inhibitor).
# [3] = test system: MKN-45 cells; test: Synergistic effect of anti-catalase and anti-SOD in induction of apoptosis in MKN-45 cells; type: cell-based, human; settings: 2 mM histidine, MKN-45, 3 hours, FIG. 18
# Protocol: 12 500 MKN-45 cells in […] RPMI 1640 medium, 10% FBS received the given concentrations of anti-catalase. Control batches remained free of additional batches, batches for determination of the interaction additionally received 0.5 ng/ml or 2 ng/ml anti-SOD. The percentages of apoptotic cells were determined after 5.5 hours in duplicates.
# This is unexpected and of great interest, since on its basis a considerable saving of antibodies could be achieved with the same effect. So, for example the combination of 2 ng/ml anti-SOD with 2 ng/ml anti-catalase results in 80 percent of the effect that can be achieved with 125 ng/ml of anti-catalase antibodies alone. 12 500 MKN-45 cells in […] RPMI 1640 medium, 10% FBS received the given concentrations of anti-catalase (control), anti-catalase plus 2 mM histidine (singlet oxygen scavenger), anti-catalase plus 1 ng/ml anti-SOD, anti-catalase/1 ng/ml anti-SOD/2 mM histidine. The percentages of apoptotic cells are determined after 3 hours in duplicates.
# 12 500 MKN-45 cells in […] RPMI 1640 medium, 10% FBS received the given concentrations of the Fab fragment AbD15562 directed against catalase. […] The percentages of apoptotic cells were determined after 3 hours in duplicates.
Molecule,effect of inhibitor on apoptosis induced by monoclonal antibody against catalase ([1]; inhibitor concentrations),effect of inhibitor on anti-catalase-induced apoptosis [2],effect of inhibitor on anti-SOD-induced apoptosis [2],effect of inhibitor on anti-SOD-induced apoptosis ([1]; FIG. 10),further results
"NCCc1ccc(S(=O)(=O)F)cc1 [AEBSF, 4-(2-aminoethyl)-benzenesulfonyl fluoride]",inhibited,–,–,–,–
"CC[n+]1ccccc1-c1c2nc(c(-c3cccc[n+]3CC)c3ccc([n-]3)c(-c3cccc[n+]3CC)c3nc(c(-c4cccc[n+]4CC)c4ccc1[n-]4)C=C3)C=C2.[Cl-].[Cl-].[Cl-].[Cl-].[Cl-].[Mn+3] [MnTE2PyP, Mn(III) meso-tetrakis(N-ethyl-2-pyridyl)porphyrin pentachloride]",–,inhibition,inhibition,–,–
"Cl.O=S(=O)([O-])c1ccc(-c2c3nc(c(-c4ccc(S(=O)(=O)O)cc4)c4ccc([nH]4)c(-c4ccc(S(=O)(=O)O)cc4)c4nc(c(-c5ccc(S(=O)(=O)O)cc5)c5ccc2[nH]5)C=C4)C=C3)cc1.[Fe] [FeTPPS, 5-, 10-, 15-, 20-tetrakis(4-sulfonatophenyl)porphyrinato iron(III) chloride]",inhibited in the lower concentration range of the antibody,inhibition,inhibition,inhibition,–
COc1cccc(C=NCCN=Cc2cccc(OC)c2[O-])c1[O-].[Cl-].[Mn+3] [EUK-134],–,–,–,–,"effect on anti-catalase-induced apoptosis ([1]; 0.25 μM EUK-134, middle concentration range of the antibody, FIG. 9): stronger inhibition; effect on anti-catalase-induced apoptosis ([1]; 0.25 mM EUK-134, lower concentration range of the antibodies, FIG. 9): significant increase in apoptosis; effect on concentration curve of anti-catalase-induced apoptosis ([1]; 0.06 and 0.125 mM EUK-134, MKN-45, 2.5 hours, FIG. 9): change the optimum curve into a plateau curve; effect on anti-catalase-induced apoptosis ([1]; two next higher concentrations of EUK-134, middle concentration range of the antibody, FIG. 9): complete inhibition of the HOCl pathway"
"O=[N+]([O-])c1cccc2c(Br)n[nH]c12 [3-Br-7-nitro-indazole, 3-bromo-7-nitroindazole]",–,inhibition,inhibition,–,–
N[C@@H](Cc1c[nH]cn1)C(=O)O [histidine],–,–,–,–,blocking of the supra-optimum drop of the concentration-dependent curves [3]: can be blocked; blocking of the synergistic effect between anti-SOD and anti-catalase [3]: cannot be blocked
NCCS(=O)(=O)O [taurine],–,lacking inhibitory effect,lacking inhibitory effect,lacking inhabitability,"effect on the NO/peroxynitrite pathway in anti-SOD-induced apoptosis ([1]; MKN-45, 50 mM taurine, FIG. 10): enhancing effect; effect of inhibitor on apoptosis induced by monoclonal antibody against catalase ([1]; higher antibody concentration (HOCl pathway)): inhibitory effect"
"COC(=O)[C@@H](N)CCCNC(=N)N[N+](=O)[O-].Cl [L-NAME, N-ω-nitro-L-arginine methylester hydrochloride]",inhibited in the lower concentration range of the antibody,–,–,inhibition,–
B1,–,compensated,compensated,–,–
